Measurements from PubChem BioAssay (NCI).
Where “and” joins values, the source holds several entries; their conditions need not be identical. Equal entries are not always repeated.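 Step 1: Grow cells in 96-well plates. Step 2: Expose to compound for 48 hours at 5 concentrations. Step 3: Interpolate endpoints linearly; if unreached, use highest concentration. Abbreviation: GI50, concentration required for 50% inhibition of growth. TGI marks complete inhibition of growth.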

What was measured:
Assay in all cases: inhibition of tumour cell growth, NCI panel, 48 h
HL-60(TB) leukemia = system: HL-60(TB) leukemia
SK-MEL-5 melanoma = system: SK-MEL-5 melanoma
LXFL 529 NSCLC = system: LXFL 529 NSCLC
HCC-2998 colon = system: HCC-2998 colon
LOX IMVI melanoma = system: LOX IMVI melanoma
CAKI-1 renal = system: CAKI-1 renal
KM20L2 colon = system: KM20L2 colon
HS 578T breast = system: HS 578T breast
PC-3 prostate = system: PC-3 prostate
T-47D breast = system: T-47D breast

Row | Structure (SMILES) | TGI (HL-60(TB) leukemia) | TGI (SK-MEL-5 melanoma) | TGI (LXFL 529 NSCLC) [µM] | TGI (HCC-2998 colon) | TGI (LOX IMVI melanoma) | TGI (CAKI-1 renal) | TGI (KM20L2 colon) [µM] | GI50 (HS 578T breast) | TGI (HS 578T breast) | GI50 (HL-60(TB) leukemia) | GI50 (SK-MEL-5 melanoma) | GI50 (HCC-2998 colon) | GI50 (LOX IMVI melanoma) | GI50 (CAKI-1 renal) | GI50 (PC-3 prostate) | TGI (PC-3 prostate) | GI50 (T-47D breast) | TGI (T-47D breast)
1 | O=c1c(-c2ccccc2)c2oc(c1-c1ccccc1)CSCc1cccc(c1)CSC2 | > 100 µM | > 100 µM | > 100 | > 100 µM | > 100 µM | > 100 µM | > 100 |  |  |  |  |  |  |  |  |  |  | 
2 | CC(=O)O/N=C(/C)c1ccccc1O | > 100 µM |  | > 100 | > 100 µM | > 100 µM | > 100 µM | > 100 |  |  |  |  |  |  |  |  |  |  | 
3 | COC[C@H]1Cn2cc(-c3nc(Nc4ccnn4C)ncc3C)nc2C(=O)N1Cc1ccc(F)c(F)c1 | 10.6 µM | > 83.3 µM |  | > 100 µM | > 100 µM | > 100 µM |  | 18.5 µM | > 100 µM | 0.471 µM | 9.51 µM | 0.0673 µM | 0.119 µM | 0.795 µM | > 100 µM | > 100 µM | 65.5 µM | > 100 µM
4 | CC(=O)CC(OC(C)=O)C1=CCC2C(CC1C)OC(=O)C2C (stereo not given) | > 100 µM | > 100 µM |  | > 100 µM | > 100 µM | > 100 µM |  |  | > 100 µM |  |  |  |  |  |  | > 100 µM |  | > 100 µM
5 | CC1(C)OC1COc1c2occc2cc2ccc(=O)oc12 (stereo not given) | > 100 µM | > 100 µM |  | > 100 µM | > 100 µM | > 100 µM |  |  | > 100 µM |  |  |  |  |  |  | > 100 µM |  | > 100 µM
6 | Cc1nnc(NC(=O)c2nc(S(=O)(=O)Cc3ccc(F)cc3)ncc2Cl)s1 | 4.73 µM | 31.4 µM |  | 29.4 µM | 2.96 µM | 3.24 µM |  | 12.7 µM | 50.8 µM | 2.6 µM | 17 µM | 13.4 µM | 1.5 µM | 1.78 µM | 10 µM | 22.9 µM | 2.45 µM | 14.1 µM
7 | O=C(CCCSc1nc(-c2ccccc2)cc(-c2ccccc2)n1)NO | 6.39 µM | 3.17 µM |  | 6.95 µM | 5.47 µM | 6.46 µM |  | 2.32 µM | 27 µM | 2.48 µM | 1.41 µM | 2.05 µM | 2.26 µM | 0.516 µM | 1.72 µM | 13.6 µM | 1.76 µM | 22 µM
8 | CC(=O)NNc1nc(C)c(C(=O)/C=C/c2ccc(NC(C)=O)cc2)s1 | > 100 µM | > 100 µM |  | > 100 µM | > 100 µM | > 100 µM | > 100 |  |  |  |  |  |  |  |  |  |  | 
9 | c1ccc(Sc2ncnc3ccccc23)cc1 | 27.9 µM | 24 µM |  | 28.7 µM | 19.8 µM | 32.3 µM |  | 29.5 µM | > 100 µM | 6.37 µM | 11.4 µM | 15.4 µM | 6.27 µM | 12.7 µM | 12.3 µM | 60 µM | 9.72 µM | 28.4 µM
10 | CC1(COc2ccc3c(c2)ncn3-c2ccc3cccc(N4CCC(N)CC4)c3n2)COC1 | 4.54 µM and 4.49 µM | 6.7 µM and 5.22 µM |  | 7.51 µM and 7.85 µM | 3.97 µM and > 10 µM | 19.6 µM and > 10 µM |  | 2.08 µM and 0.385 µM | 15.3 µM and 4.77 µM | 1.82 µM and 1.8 µM | 2.31 µM and 2.12 µM | 2.7 µM and 2.25 µM | 1.4 µM and 1.16 µM | 4.75 µM and 3.55 µM | 5.38 µM and 3.54 µM | 21.6 µM and > 10 µM | 15.9 µM and > 10 µM | 30.5 µM and > 10 µM
11 | CCn1c(-c2nonc2N)nc2c(C#CC(C)(C)O)nc(OC[C@@H](N)c3ccccc3)cc21 | 10.3 µM | 7.37 µM |  | 8.14 µM | 8.82 µM | 14.1 µM |  | 4.56 µM | 10.7 µM | 5.23 µM | 3.99 µM | 4.31 µM | 4.2 µM | 6.53 µM | 7.73 µM | 25 µM | 3.8 µM | 8.24 µM
12 | C[C@]12CCC3c4ccc(O)cc4CCC3C1CC[C@@]2(O)CNC(=O)/C=C/c1ccc(O)c(O)c1 (stereo not given in full) | 20.1 µM | 12 µM |  | 23.4 µM | 6.52 µM | 33 µM |  | 6.24 µM | 30.8 µM | 3.99 µM | 3.23 µM | 10.8 µM | 2.37 µM | 11.7 µM | 5.65 µM | 22.8 µM | 6.61 µM | 23.9 µM
13 | CC(=O)OCCOCNC(=S)N/N=C(\C)c1cnccn1 | 76.1 µM | 32.7 µM | > 100 | > 100 µM | > 100 µM |  | 81.3 |  |  |  |  |  |  |  |  |  |  | 
14 | O=C1CCCCN1c1ccccc1C#C/C=C\C#Cc1ccccc1C(F)(F)F | 3.29 µM | 12.7 µM |  | 2.5 µM | 8.87 µM | 9.83 µM |  | 3.75 µM | > 50 µM | 1.27 µM | 2.75 µM | 0.951 µM | 1.84 µM | 1.68 µM | 2.32 µM | > 50 µM | > 50 µM | > 50 µM
15 | Cc1ccc(/C=C/C(=O)c2cccc3ccccc23)cc1 | 28.3 µM |  | 25.3 | 37.7 µM |  | 32.8 µM | 31 |  |  |  |  |  |  |  |  |  |  | 
16 | COCCOc1ccc(-c2nc3ccc(-c4nc5ccc(N6CCN(C)CC6)cc5[nH]4)cc3[nH]2)cc1 | 91.8 µM | 1.88 µM |  | 3.77 µM | 2.83 µM | > 100 µM |  | 2.94 µM | 15.9 µM | 1.62 µM | 0.351 µM | 1.78 µM | 0.851 µM | 2.25 µM | 2.19 µM | 24.5 µM | 1 µM | 9.09 µM
17 | Cc1csc(-c2nnc(Nc3ccc(Oc4ncccc4-c4ccnc(N)n4)cc3)c3ccccc23)c1 | > 100 µM | > 100 µM |  | > 30.2 µM | > 100 µM | > 100 µM |  | > 100 µM | > 100 µM | 2.16 µM | 71.5 µM | 2.54 µM | 0.433 µM |  | > 27.1 µM | > 100 µM | 5 µM | > 100 µM
